The assay is described as follows: Sensory evaluation of sourness-masking effect in yoghurt drink by five special panelists. The settings on record: for Evaluation Result (sourness-masking effect): score 0-3, stored at 10° C. for 10 days. How it is done:
The peptide mixture obtained in the above procedure 1 was centrifuged (20,000 G) to obtain an aqueous layer. The aqueous layer was treated with UF membranes of 20 nm, 5 kDa and 1 kDa, respectively, and permeate solutions were collected. Each permeate solution obtained through the UF membranes or the peptide mixture before treatment were added to a commercially available yoghurt drink. After the yoghurt drink was stored at 10° C. for 10 days, five special panelists conducted sensory evaluation regarding a sourness-masking effect. Note that each sample was prepared such that the addition amount is 0.1% calculated in terms of the peptide mixture. A commercially available yoghurt drink without addition was used as control. Evaluation was performed by scoring from 0 to 3 shown in Table 1 at 0.5 point intervals.
In the same manner as in the above procedure 2, the obtained 13 fractions were added to a commercially available yoghurt drink, respectively. After the yoghurt drink was stored at 10° C. for 10 days, five special panelists conducted sensory evaluation regarding a sourness-masking effect. Each sample was prepared such that the addition amount is 0.1% calculated in terms of the peptide mixture. The evaluation method is the same as in the above procedure 2.
In the same manner as in the above procedure 2, the obtained four fractions were added to a commercially available yoghurt drink, respectively. After the yoghurt drink was stored at 10° C. for 10 days, five special panelists conducted sensory evaluation regarding a sourness-masking effect. Each sample was prepared such that the addition amount is 0.1% calculated in terms of the peptide mixture. The evaluation method is the same as in the above procedure 2.
The five kinds of peptide identified in Example 1 and phenylalanine were added to a commercially available yoghurt drink, respectively. After the yoghurt drink was stored at 10° C. for 10 days, five special panelists conducted sensory evaluation regarding a sourness-masking effect. The peptide mixture obtained in Example 1-1 was added in an amount of 0.1%, the peptides and phenylalanine obtained in Example 1-5 were added in an amount of 20 ppb and the mixture of VP+LLL was added in an amount of 10 ppb each. The evaluation method was the same as in Example 1-2.
VP and LLL were mixed in the mixture ratio within the range from 1:9 to 9:1 and each mixture was added to a commercially available yoghurt drink in an amount of 0.01 ppm. After the yoghurt drink was stored at 10° C. for 10 days, five special panelists conducted sensory evaluation regarding a sourness-masking effect. The evaluation method is the same as in the Example 1-2.
VP, LLL and the mixture of equal parts of VP and LLL were added to a commercially available yoghurt drink in an amount of 0.001 ppm, 0.01 ppm and 0.1 ppm, respectively. After the yoghurt drink was stored at 10° C. for 10 days, five special panelists conducted sensory evaluation regarding a sourness-masking effect. The evaluation method is the same as in the Example 1-2.

Where [1] appears, read: Example 4, addition concentration 0.001 ppm.
Where [2] appears, read: Example 4, addition concentration 0.01 ppm.
Setting [3] is: Example 4, addition concentration 0.1 ppm.

For `N[C@@H](Cc1ccccc1)C(=O)O` [F, phenylalanine, reference compound], where the note is “Example 2, added at 20 ppb”, the “Evaluation Result (sourness-masking effect)” value (shortened to “Evaluation Result”) was found to be 0.1.
Leu-Leu-Leu [LLL]: the “sourness-masking effect, in words” value (Example 2, added at 20 ppb) was “remarkable sourness-masking effect”. Moreover, the “Evaluation Result” value is 1.4 (Example 2, added at 20 ppb); 1.3 (Example 3, added at 0.01 ppm); 0.3 under setting [1]; 1.4 under setting [2]; 1.5 under setting [3].
As to “Leu-Leu-Leu-Leu (LLLL; printed: Leu-Leu-Leu-Leu) [reference compound]”, the “Evaluation Result” value (Example 2, added at 20 ppb) turned out to be 0.3.
Leu-Pro-Pro [LPP, reference compound]: the “Evaluation Result” value (Example 2, added at 20 ppb) is 0.3.
As to Val-Pro [VP], the “sourness-masking effect, in words” value (Example 2, added at 20 ppb) is on record as “remarkable sourness-masking effect”. Further, the “Evaluation Result” value is on record as 1.3 (Example 2, added at 20 ppb); 1.4 (Example 3, added at 0.01 ppm); 0.2 under setting [1]; 1.5 under setting [2]; 1.5 under setting [3].
Regarding Val-Pro-Pro [VPP, reference compound], for the setting “Example 2, added at 20 ppb”, the “Evaluation Result” value came out at 0.2.

For the origin of these results see patent US9901111B2, “Taste-improving peptide” (Takasago International Corporation, priority 2011, dated 2018).
